Measured values from the NIST ThermoML archive (doi:10.1016/j.jct.2015.11.020).
Values joined by “and” are separate entries in the source; they are usually repeats but may differ in a detail not shown here. Equal entries are not always repeated.

Test: mn = molality of the nth substance listed, in mol/kg
Conditions: 100 kPa, Liquid; for speed of sound: Frequency=3 MHz, Sing-around technique in a fixed-path interferometer; for mass density: Vibrating tube method

N[C@@H](CO)C(=O)O [L-serine] + O
Conditions	mass density, 305.15 K [kg/m3]	mass density, 310.15 K [kg/m3]	mass density, 315.15 K [kg/m3]	speed of sound, 305.15 K [m/s]	speed of sound, 310.15 K [m/s]	speed of sound, 315.15 K [m/s]
m1 = 0.1012	999.763	997.637	995.748	1519.7	1529.4	1537.7
m1 = 0.1997	1003.99	1001.83	999.945	1525.5	1535.1	1543.3
m1 = 0.3	1008.2	1006.11	1004.22	1531.1	1540.5	1548.4
m1 = 0.3986	1012.53	1010.31	1008.42	1536.8	1546.1	1554
m1 = 0.4987	1016.75	1014.57	1012.68	1542.2	1551.4	1559.2
m1 = 0.6008	1021.43	1018.92	1017.03	1548	1556.9	1564.5
m1 = 0.6973	1025.53	1023.03	1021.14	1553.3	1562.2	1569.6
m1 = 0.8	1029.74	1027.41	1025.52	1558.8	1567.6	1575
m1 = 0.9003	1033.96	1031.68	1029.79	1564	1572.7	1579.9
m1 = 0.9963	1037.97	1035.77	1033.88	1569.2	1577.7	1584.9

C[C@@H](O)[C@H](N)C(=O)O [L-threonine] + O
Conditions	mass density, 305.15 K [kg/m3]	mass density, 310.15 K [kg/m3]	mass density, 315.15 K [kg/m3]	speed of sound, 305.15 K [m/s]	speed of sound, 310.15 K [m/s]	speed of sound, 315.15 K [m/s]
m1 = 0.09989	999.283	997.513	995.687	1521	1530.7	1538.9
m1 = 0.1997	1003.52	1001.69	999.928	1528	1537.5	1545.4
m1 = 0.2989	1007.74	1005.85	1004.15	1535	1544.6	1552
m1 = 0.3989	1011.99	1010.04	1008.4	1542.2	1551.1	1559
m1 = 0.5002	1016.3	1014.29	1012.7	1549.1	1558.1	1566
m1 = 0.5982	1020.46	1018.39	1016.87	1555.7	1564.8	1573.1
m1 = 0.6471	1022.54	1020.44	1018.94	1559	1567.9	1576.5
m1 = 0.7007	1024.82	1022.69	1021.22	1562.4	1571.7	1580.1
m1 = 0.7476	1026.81	1024.65	1023.22	1565.7	1575.1	1583.3
m1 = 0.7854	1028.42	1026.23	1024.82	1568.4	1577.8	1585.9

CN(C)C(=N)NC(=N)N.Cl [N,N-dimethylimidodicarbonimidic diamide hydrochloride] + O
Conditions	mass density, m1 = 0.03 [kg/m3]	mass density, m1 = 0.045 [kg/m3]	mass density, m1 = 0.06 [kg/m3]	mass density, m1 = 0.09 [kg/m3]	speed of sound, m1 = 0.03 [m/s]	speed of sound, m1 = 0.045 [m/s]	speed of sound, m1 = 0.06	speed of sound, m1 = 0.09 [m/s]
305.15 K	996.159	996.716	997.319	998.393	1516.5	1518	1519.3 m/s and 1519.3 m/s	1522
310.15 K	994.44	994.953	995.586	996.654	1526.3	1527.7	1529 m/s	1531.5
315.15 K	992.549	993.115	993.681	994.744	1534.4	1535.9	1537.2 m/s	1539.6

O [water] + CN(C)C(=N)NC(=N)N.Cl
m2 = 0
Conditions	mass density [kg/m3]	speed of sound [m/s]
305.15 K	995.038	1513.7
310.15 K	993.328	1523.6
315.15 K	991.439	1532.1

O [water] + C[C@@H](O)[C@H](N)C(=O)O
m2 = 0
Conditions	mass density [kg/m3]	speed of sound [m/s]
305.15 K	995.038	1513.7
310.15 K	993.328	1523.6
315.15 K	991.439	1532.1

O [water] + N[C@@H](CO)C(=O)O
m2 = 0
Conditions	mass density [kg/m3]	speed of sound [m/s]
305.15 K	995.038	1513.7
310.15 K	993.328	1523.6
315.15 K	991.439	1532.1
